The text below walks through data of patent publication US20230159489A1, “PHD INHIBITOR COMPOUNDS, COMPOSITIONS, AND USE” (Akebia Therapeutics, Inc., priority 2020, published 2023).

Structures can show the parent of a compound that is named as a salt.

Broadly, the IC50 is the midpoint of a concentration-inhibition curve.

One assay deals with T1, full-length human PHD1 (Homo sapiens, UniProt Q96KS0).
T1 construct: FLAG (N); purchased Active Motif 81064; host or cells: baculovirus expression system
Put plainly: TR-FRET assay, enzymatic IC50 against PHD1. Further: 15 nM PHD1. Format: biochemical. The text has this:
PHD1 was expressed in a baculovirus expression system as the full-length protein (NCBI accession number NP_542770.2) with an N-terminal FLAG tag (molecular weight 44.9 kDa).

In the next assay the target is T2, full-length human PHD3 (Homo sapiens, UniProt Q9H6Z9).
T2 construct: 6-His (N); purchased Active Motif 81033; host or cells: E. coli
Put plainly: TR-FRET assay, enzymatic IC50 against PHD3. Further: 35 nM PHD3. Format: biochemical. The text has this:
Recombinant human PHD3 protein (molecular weight 31.1 kDa) was purchased from Active Motif (Carlsbad, Calif., USA). It was expressed in E. coli as the full-length protein (NCBI accession number NP_071356.1) with an N-terminal 6-His tag (catalog #81033, Lot #24417001).
In general terms: In TR-FRET formats the signal depends on donor and acceptor labels being close together.

Another assay addresses full-length human PHD2 (Homo sapiens, UniProt Q9GZT9). Put plainly: TR-FRET assay, enzymatic IC50 against PHD2.

Sequence of full-length human PHD2 (Q9GZT9 whole entry): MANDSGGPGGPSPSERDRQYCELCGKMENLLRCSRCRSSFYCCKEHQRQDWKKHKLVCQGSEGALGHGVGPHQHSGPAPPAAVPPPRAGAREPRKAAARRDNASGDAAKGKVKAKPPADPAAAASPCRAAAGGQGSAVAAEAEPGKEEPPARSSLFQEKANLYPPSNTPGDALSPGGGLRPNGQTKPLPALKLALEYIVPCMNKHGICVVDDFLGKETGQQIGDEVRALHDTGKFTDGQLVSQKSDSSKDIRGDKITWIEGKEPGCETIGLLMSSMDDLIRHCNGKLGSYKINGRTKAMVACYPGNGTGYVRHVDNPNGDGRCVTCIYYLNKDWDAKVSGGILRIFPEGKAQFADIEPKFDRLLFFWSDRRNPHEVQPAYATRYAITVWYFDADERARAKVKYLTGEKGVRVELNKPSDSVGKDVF
T1 sequence (Q96KS0 whole entry): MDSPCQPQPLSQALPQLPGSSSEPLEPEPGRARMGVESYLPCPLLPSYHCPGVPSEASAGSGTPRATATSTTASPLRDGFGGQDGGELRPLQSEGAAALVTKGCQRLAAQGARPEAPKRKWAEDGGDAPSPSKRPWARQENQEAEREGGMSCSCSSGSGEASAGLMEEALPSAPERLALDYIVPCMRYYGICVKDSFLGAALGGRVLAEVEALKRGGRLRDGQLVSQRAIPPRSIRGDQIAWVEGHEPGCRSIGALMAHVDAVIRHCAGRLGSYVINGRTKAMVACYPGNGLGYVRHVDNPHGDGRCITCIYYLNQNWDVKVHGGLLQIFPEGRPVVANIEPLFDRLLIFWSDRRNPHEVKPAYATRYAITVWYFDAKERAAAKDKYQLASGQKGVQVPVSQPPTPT
T2 sequence (Q9H6Z9 whole entry): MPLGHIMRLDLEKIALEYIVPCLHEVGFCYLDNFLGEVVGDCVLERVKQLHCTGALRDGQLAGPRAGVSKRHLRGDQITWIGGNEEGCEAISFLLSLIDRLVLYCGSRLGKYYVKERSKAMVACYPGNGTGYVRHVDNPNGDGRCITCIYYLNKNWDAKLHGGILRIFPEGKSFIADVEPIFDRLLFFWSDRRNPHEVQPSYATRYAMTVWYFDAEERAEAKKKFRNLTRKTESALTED
From the text for full-length human PHD2: Time-resolved fluorescence resonance energy transfer (TR-FRET) assay was utilized to determine the enzymatic half maximal inhibitory concentration (IC50) value of PHD inhibitors against the full-length human prolyl-4-hydroxylase domain (PHD) enzymes, PHD1, PHD2, and PHD3. The TR-FRET assay was developed based on the specific binding of hydroxylated HIF-1α peptide with the complex formed by VHL, EloB and EloC (VBC), to generate a fluorescent signal. Terbium (Tb)-Donor (monoclonal antibody anti-6His-Tb-cryptate Gold) and D2-acceptor (streptavidin [SA]-D2) of TR-FRET are linked to the VBC complex and to HIF-1α peptide, respectively. The VBC complex binds specifically to the HIF-1α peptide when it is hydroxylated, allowing energy transfer from TR-FRET donor to acceptor (FIG. 1). […] The plates were incubated for 30 minutes at room temperature without rotation. […] TR-FRET assays were performed in triplicate at each concentration of compound and the assays were repeated independently three times.

On to `Cc1nn(-c2ccc(S(=O)(=O)c3ccccc3)cn2)c(O)c1-c1ccc(C#N)cc1` [Compound 8, 4-(5-hydroxy-3-methyl-1-(5-(phenylsulfonyl)pyridin-2-yl)-1H-pyrazol-4-yl)benzonitrile], for which the IC50 against full-length human PHD1 is under 100 nM; against full-length human PHD3, 100 to 1000 nM; against full-length human PHD2, under 100 nM.
On to `Cc1nn(-c2ccc(NS(C)(=O)=O)cn2)c(O)c1-c1ccc(C#N)cc1` [Compound 6, N-(6-(4-(4-cyanophenyl)-5-hydroxy-3-methyl-1H-pyrazol-1-yl)pyridin-3-yl) methanesulfonamide], for which the IC50 at full-length human PHD1, against full-length human PHD3 and on full-length human PHD2 was under 100 nM in each case.
As to `Cc1nn(-c2ccc(N3CCCC3=O)cn2)c(O)c1-c1ccc(C#N)cc1` [Compound 7, 4-(5-hydroxy-3-methyl-1-(5-(2-oxopyrrolidin-1-yl)pyridin-2-yl)-1H-pyrazol-4-yl)benzonitrile], the IC50 was under 100 nM against full-length human PHD1, 100 to 1000 nM on full-length human PHD3 and under 100 nM on full-length human PHD2.
On to `Cc1nn(-c2ccc(S(C)(=N)=O)cn2)c(O)c1-c1ccc(C#N)cc1` (centres unmarked) [Compound 13, 4-(5-hydroxy-3-methyl-1-(5-(S-methylsulfonimidoyl)pyridin-2-yl)-1H-pyrazol-4-yl)benzonitrile], for which the values for the IC50 against full-length human PHD1, against full-length human PHD3 and at full-length human PHD2 were under 100 nM, 100 to 1000 nM and under 100 nM, respectively.
For the molecule `Cc1nn(-c2ccc(S(=N)(=O)C3CCCC3)cn2)c(O)c1-c1ccc(C#N)cc1` (centres unmarked) [Compound 35, 4-(1-(5-(cyclopentanesulfonimidoyl)pyridin-2-yl)-5-hydroxy-3-methyl-1H-pyrazol-4-yl)benzonitrile], the IC50 at full-length human PHD1, at full-length human PHD3 and on full-length human PHD2 was under 100 nM in each case.
For `Cc1cc(-n2nc(C)c(-c3ccc(C#N)cc3)c2O)ncc1P(C)(C)=O` [Compound 36, 4-(1-(5-(dimethylphosphoryl)-4-methylpyridin-2-yl)-5-hydroxy-3-methyl-1H-pyrazol-4-yl)benzonitrile], the IC50 against full-length human PHD1 was under 100 nM; against full-length human PHD3, 100 to 1000 nM; against full-length human PHD2, under 100 nM.
As to `Cc1nn(-c2ccc(NS(=O)(=O)CC(=O)O)cn2)c(O)c1-c1ccc(C#N)cc1` [Compound 55, 2-(N-(6-(4-(4-cyanophenyl)-5-hydroxy-3-methyl-1H-pyrazol-1-yl)pyridin-3-yl)sulfamoyl)acetic acid], the IC50 against full-length human PHD1, against full-length human PHD3 and against full-length human PHD2 was under 100 nM each time.
Take `Cc1nn(-c2ccc(S(C)(=O)=NC#N)cn2)c(O)c1-c1ccc(C#N)cc1` (centres unmarked) [Compound 58, N-((6-(4-(4-cyanophenyl)-5-hydroxy-3-methyl-1H-pyrazol-1-yl)pyridin-3-yl)(methyl)(oxo)-λ^6-sulfaneylidene)cyanamide]: the IC50 at full-length human PHD1 is under 100 nM; at full-length human PHD3 it was 100 to 1000 nM; against full-length human PHD2, under 100 nM.
Regarding `CN=S(C)(=O)c1ccc(-n2nc(C)c(-c3ccc(C#N)cc3)c2O)nc1` (centres unmarked) [Compound 15, 4-(1-(5-(N,S-dimethylsulfonimidoyl)pyridin-2-yl)-5-hydroxy-3-methyl-1H-pyrazol-4-yl)benzonitrile], the IC50 on full-length human PHD1, against full-length human PHD3 and against full-length human PHD2 was under 100 nM in each case.
Regarding `Cc1cc(C#N)ccc1-c1c(C)nn(-c2ccc(S(C)(=O)=O)cn2)c1O` [Compound 2, 4-(5-hydroxy-3-methyl-1-(5-(methylsulfonyl)pyridin-2-yl)-1H-pyrazol-4-yl)-3-methylbenzonitrile], the IC50 at full-length human PHD1, on full-length human PHD3 and at full-length human PHD2 was under 100 nM throughout.
As to `Cc1nn(-c2ccc([S@@+](C)[O-])cn2)c(O)c1-c1ccc(C#N)cc1` [Compound 23, (R)-4-(5-hydroxy-3-methyl-1-(5-(methylsulfinyl)pyridin-2-yl)-1H-pyrazol-4-yl)benzonitrile], the IC50 against full-length human PHD1 and against full-length human PHD2 was under 100 nM each time.
For `Cc1nc(-n2nc(C)c(-c3ccc(C#N)cc3)c2O)ccc1S(C)(=O)=O` [Compound 45, 4-(5-hydroxy-3-methyl-1-(6-methyl-5-(methylsulfonyl)pyridin-2-yl)-1H-pyrazol-4-yl)benzonitrile], the IC50 against full-length human PHD1 and at full-length human PHD2 was 1000 to 10000 nM throughout.
For the molecule `Cc1nn(-c2ccc(NC(=O)N3CCNCC3)cn2)c(O)c1-c1ccc(C#N)cc1` [Compound 32, N-(6-(4-(4-cyanophenyl)-5-hydroxy-3-methyl-1H-pyrazol-1-yl)pyridin-3-yl)piperazine-1-carboxamide hydrochloride], the IC50 against full-length human PHD1 and against full-length human PHD2 was 100 to 1000 nM in each case.
Regarding `Cc1cc(-n2nc(C)c(-c3ccc(C#N)cc3)c2O)ncc1S(C)(=N)=O` (centres unmarked) [Compound 40, 4-(5-hydroxy-3-methyl-1-(4-methyl-5-(S-methylsulfonimidoyl)pyridin-2-yl)-1H-pyrazol-4-yl)benzonitrile], the IC50 against full-length human PHD1 and against full-length human PHD2 was under 100 nM each time.
`Cc1cc(-n2nc(C)c(-c3ccc(C#N)cc3)c2O)ncc1N1CCCC1=O` [Compound 37, 4-(5-hydroxy-3-methyl-1-(4-methyl-5-(2-oxopyrrolidin-1-yl)pyridin-2-yl)-1H-pyrazol-4-yl)benzonitrile]: the IC50 at full-length human PHD1 and against full-length human PHD2 was under 100 nM throughout.
Turning to `Cc1cc(-n2nc(C)c(-c3ccc(C#N)cc3)c2O)ncc1[S@@](=N)(=O)C1CC1` [Compound 68, (S)-4-(1-(5-(cyclopropanesulfonimidoyl)-4-methylpyridin-2-yl)-5-hydroxy-3-methyl-1H-pyrazol-4-yl)benzonitrile], the IC50 at full-length human PHD1 and against full-length human PHD2 was under 100 nM in each case.
Turning to `Cc1nn(-c2ccc([S@@](=N)(=O)C(C)C)cn2)c(O)c1-c1ccc(C#N)cc1` [Compound 41, (S)-4-(5-hydroxy-3-methyl-1-(5-(S-isopropylsulfonimidoyl)pyridin-2-yl)-1H-pyrazol-4-yl)benzonitrile], the IC50 against full-length human PHD1 and on full-length human PHD2 was under 100 nM each time.
With `CNS(=O)(=O)Nc1ccc(-n2nc(C)c(-c3ccc(C#N)cc3)c2O)nc1` [Compound 51, N-(6-(4-(4-cyanophenyl)-5-hydroxy-3-methyl-1H-pyrazol-1-yl)pyridin-3-yl)-N′-methylsulfamide], the IC50 against full-length human PHD1 and on full-length human PHD2 was under 100 nM each time.
Take `CC(=O)NS(=O)(=O)c1ccc(-n2nc(C)c(-c3ccc(C#N)cc3)c2O)nc1` [Compound 29, N-((6-(4-(4-cyanophenyl)-5-hydroxy-3-methyl-1H-pyrazol-1-yl)pyridin-3-yl)sulfonyl)acetamide]: the IC50 against full-length human PHD1 and on full-length human PHD2 was under 100 nM throughout.
As for `Cc1nn(-c2ccc(-n3cc(-c4ccccc4)cn3)cn2)c(O)c1-c1ccc(C#N)cc1` [Compound 64, 4-(5-Hydroxy-3-methyl-1-(5-(4-phenyl-1H-pyrazol-1-yl)pyridin-2-yl)-1H-pyrazol-4-yl)benzonitrile], the IC50 against full-length human PHD1 is under 100 nM; at full-length human PHD2, 100 to 1000 nM.
On to `Cc1nn(-c2ccc(S(=N)(=O)C3CC3)cn2)c(O)c1-c1ccc(C#N)cc1` (centres unmarked) [Compound 33, 4-(1-(5-(cyclopropanesulfonimidoyl)pyridin-2-yl)-5-hydroxy-3-methyl-1H-pyrazol-4-yl)benzonitrile], for which the IC50 at full-length human PHD1 and on full-length human PHD2 was under 100 nM in each case.
Take `Cc1nn(-c2ccc(-n3cccn3)cn2)c(O)c1-c1ccc(C#N)cc1` [Compound 63, 4-(1-(5-(1H-pyrazol-1-yl)pyridin-2-yl)-5-hydroxy-3-methyl-1H-pyrazol-4-yl)benzonitrile]: the IC50 on full-length human PHD1 is under 100 nM; against full-length human PHD2, 100 to 1000 nM.
`Cc1nn(-c2ccc(C(=O)NS(C)(=O)=O)cn2)c(O)c1-c1ccc(Cl)cc1` [Compound 28, 6-(4-(4-chlorophenyl)-5-hydroxy-3-methyl-1H-pyrazol-1-yl)-N-(methylsulfonyl)nicotinamide]: the IC50 at full-length human PHD1 was under 100 nM; against full-length human PHD2, 100 to 1000 nM.
Regarding `CC(=O)NS(=O)(=O)c1ccc(-n2nc(C)c(-c3ccc(Cl)cc3)c2O)nc1` [Compound 30, N-((6-(4-(4-chlorophenyl)-5-hydroxy-3-methyl-1H-pyrazol-1-yl)pyridin-3-yl)sulfonyl)acetamide], the IC50 against full-length human PHD1 and against full-length human PHD2 was under 100 nM each time.
With `CNS(=N)(=O)c1ccc(-n2nc(C)c(-c3ccc(C#N)cc3)c2O)nc1` (centres unmarked) [Compound 26, 6-(4-(4-cyanophenyl)-5-hydroxy-3-methyl-1H-pyrazol-1-yl)-N-methylpyridine-3-sulfonimidamide], the IC50 against full-length human PHD1 and at full-length human PHD2 was under 100 nM each time.
In the case of `Cc1nn(-c2ccc(CC(=O)O)cn2)c(O)c1-c1ccc(C#N)cc1` [Compound 47, 2-(6-(4-(4-cyanophenyl)-5-hydroxy-3-methyl-1H-pyrazol-1-yl)pyridin-3-yl)acetic acid], the IC50 against full-length human PHD1 and at full-length human PHD2 was under 100 nM in each case.
With `Cc1nn(-c2ccc(NS(C)(=O)=O)cn2)c(O)c1-c1ccc(Cl)cc1` [Compound 67, N-(6-(4-(4-chlorophenyl)-5-hydroxy-3-methyl-1H-pyrazol-1-yl)pyridin-3-yl)methanesulfonamide], the IC50 at full-length human PHD1 and on full-length human PHD2 was under 100 nM throughout.
As for `Cc1nn(-c2ccc(C3CN(S(C)(=O)=O)C3)cn2)c(O)c1-c1ccc(C#N)cc1` [Compound 43, 4-(5-hydroxy-3-methyl-1-(5-(1-(methylsulfonyl)azetidin-3-yl)pyridin-2-yl)-1H-pyrazol-4-yl)benzonitrile], the IC50 against full-length human PHD1 and on full-length human PHD2 was under 100 nM each time.
For `Cc1nn(-c2ccc(P(C)(C)=O)cn2)c(O)c1-c1ccc(C#N)cc1` [Compound 14, 4-(1-(5-(dimethylphosphoryl)pyridin-2-yl)-5-hydroxy-3-methyl-1H-pyrazol-4-yl)benzonitrile], the IC50 against full-length human PHD1 and against full-length human PHD2 was under 100 nM each time.
